Assay results as given in ChEMBL document CHEMBL5500341, “Discovery of pyrido[3,2-d]pyrimidin-6(5H)-one derivatives as checkpoint kinase 1 (CHK1) inhibitors with potent antitumor efficacy” (Eur J Med Chem, 2024).
Activity calls are given as the source filed them. The calls are words filed in the database; no cut-off is given here.

Columns and labels:
[1] = target: T1, Serine/threonine-protein kinase Chk1 (Homo sapiens) (UniProt O14757); assay: Inhibition of CHK1 in human MV4-11 cells assessed as decrease in S296 phosphorylation at 11.11 nM measured for 24 hrs by Western blot analysis; type: cell-based
T1 sequence (whole entry): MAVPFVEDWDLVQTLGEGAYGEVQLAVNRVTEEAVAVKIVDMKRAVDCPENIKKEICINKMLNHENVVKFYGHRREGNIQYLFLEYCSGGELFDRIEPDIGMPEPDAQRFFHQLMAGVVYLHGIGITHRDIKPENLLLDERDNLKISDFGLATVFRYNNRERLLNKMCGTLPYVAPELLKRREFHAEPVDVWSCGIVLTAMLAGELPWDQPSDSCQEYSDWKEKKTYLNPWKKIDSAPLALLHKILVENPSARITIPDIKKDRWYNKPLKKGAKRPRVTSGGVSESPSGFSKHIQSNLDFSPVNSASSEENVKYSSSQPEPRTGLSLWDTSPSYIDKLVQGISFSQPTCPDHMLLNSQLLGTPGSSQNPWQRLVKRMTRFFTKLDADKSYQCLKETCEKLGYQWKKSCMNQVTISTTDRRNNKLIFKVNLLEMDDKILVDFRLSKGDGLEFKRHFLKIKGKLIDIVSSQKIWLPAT

HT-29 [2] = assay: Synergistic antiproliferative activity against human HT-29 cells assessed as inhibition of cell proliferation incubated for 72 hrs in presence of 50 nM 5-((4-((morpholin-2-ylmethyl)amino)-5-(trifluoromethyl)pyridin-2-yl)amino)pyrazine-2-carbonitrile by CCK-8 assay; type: functional, cell-based; conditions: HT-29, 72 h
HT-29 [3] = assay: Antitumor activity against human HT-29 cells xenografted in female BALB/c mouse assessed as tumor growth inhibition at 30 mg/kg, iv administered once daily for 21 days and measured after 3 days by vernier calipers analysis; conditions: HT-29, 576 h, read-out: TGI
MV4-11 = assay: Antiproliferative activity against human MV4-11 cells assessed as inhibition of cell proliferation incubated for 72 hrs by CCK-8 assay; type: functional, cell-based; conditions: MV4-11, 72 h
HT-29 [4] = assay: Synergistic antiproliferative activity against human HT-29 cells assessed as inhibition of cell proliferation incubated for 72 hrs in presence of 50 nM gemcitabine by CCK-8 assay; type: functional, cell-based; conditions: HT-29, 72 h
HT-29 [5] = assay: cells; conditions: Homo sapiens, HT-29, 72 h
Description: Antiproliferative activity against human HT-29 cells assessed as inhibition of cell proliferation incubated for 72 hrs by CCK-8 assay

A549 = assay: cells; conditions: Homo sapiens, A549, 72 h
Description: Antiproliferative activity against human A549 cells assessed as inhibition of cell proliferation incubated for 72 hrs by CCK-8 assay

OVCAR-3 = assay: cells; conditions: Homo sapiens, OVCAR-3, 72 h
Description: Antiproliferative activity against human OVCAR-3 cells assessed as inhibition of cell proliferation incubated for 72 hrs by CCK-8 assay

HL-60 = assay: cells; conditions: Homo sapiens, HL-60, 72 h
Description: Antiproliferative activity against human HL-60 cells assessed as inhibition of cell proliferation incubated for 72 hrs by CCK-8 assay

HCT-116 = assay: cells; conditions: Homo sapiens, HCT-116, 72 h
Description: Antiproliferative activity against human HCT-116 cells assessed as inhibition of cell proliferation incubated for 72 hrs by CCK-8 assay

A2780 = assay: cells; conditions: Homo sapiens, A2780, 72 h
Description: Antiproliferative activity against human A2780 cells assessed as inhibition of cell proliferation incubated for 72 hrs by CCK-8 assay

MDA-MB-468 = assay: cells; conditions: Homo sapiens, MDA-MB-468, 72 h
Description: Antiproliferative activity against human MDA-MB-468 cells assessed as inhibition of cell proliferation incubated for 72 hrs by CCK-8 assay

[6] = Metabolic stability in human liver microsome assessed as half life preincubated with compound for 10 mins followed by NADPH addition and measured up to 60 min by LC-MS/MS analysis; type: ADME; conditions: liver microsomes, time < 70 min
[7] = Metabolic stability in human microsome assessed as intrinsic clearance preincubated with compound for 10 mins followed by NADPH addition and measured up to 60 min by LC-MS/MS analysis; type: ADME; conditions: microsomes, time < 70 min, read-out: CLH
[8] = Metabolic stability in human liver microsome assessed as intrinsic clearance preincubated with compound for 10 mins followed by NADPH addition and measured up to 60 min by LC-MS/MS analysis; type: ADME; conditions: liver microsomes, time < 70 min, read-out: CLH

SMILES | IC50 (MV4-11) [µM] | further results
Nc1ccn([C@@H]2O[C@H](CO)[C@@H](O)C2(F)F)c(=O)n1 [GEMCITABINE] | – | inhibition [1]: Active; IC50 (HT-29 [2]): 0.177 µM; inhibition in vivo at 30 mg/kg (HT-29 [3]): 33.5%
N#Cc1ncc(Nc2ncc3c(ccc(=O)n3CC(=O)O)n2)cc1N[C@H]1CC[C@@H](N)CC1 | > 10 | –
N#Cc1ncc(Nc2ncc3c(ccc(=O)n3CC(F)F)n2)cc1OCCCN | > 10 | –
N#Cc1cnc(Nc2cc(NC[C@H]3CNCCO3)c(C(F)(F)F)cn2)cn1 [SRA-737] | – | IC50 (HT-29 [4]): 0.177 µM; IC50 (HT-29 [5]): > 10 µM; IC50 (A549): > 10 µM; IC50 (OVCAR-3): > 10 µM; IC50 (HL-60): > 10 µM; IC50 (HCT-116): > 10 µM; IC50 (A2780): > 10 µM; IC50 (MDA-MB-468): > 10 µM
N#Cc1ncc(Nc2ncc3c(ccc(=O)n3CC(F)F)n2)cc1NCCN | > 10 | –
CC(C)(C)OC(=O)N1CCC(Nc2cc(Nc3ncc4c(n3)CCC(=O)N4)cnc2C#N)C1 (single isomer, unassigned) | > 10 | IC50 (HT-29 [5]): > 10 µM
N#Cc1ncc(Nc2ncc3c(ccc(=O)n3CC(F)F)n2)cc1N[C@@H]1CCCNC1 | 3.63 | –
O=C(O)Cc1ccccc1Nc1c(Cl)cccc1Cl [DICLOFENAC] | – | half-life [6]: 5.14 min; microsomal CLint [7]: 269 µL/min/mg; CLint scaled [8]: 242 mL/min/kg
N#Cc1ncc(Nc2ncc3c(ccc(=O)n3CC(F)F)n2)cc1OCC1CCNCC1 | > 10 | –
N#Cc1ncc(Nc2ncc3c(ccc(=O)n3CC(F)F)n2)cc1O[C@@H]1CCNC1 | > 10 | –
N#Cc1ncc(Nc2ncc3c(ccc(=O)n3CC(F)(F)F)n2)cc1N[C@H]1CC[C@@H](N)CC1 | 2.11 | –
N#Cc1ncc(Nc2ncc3[nH]c(=O)ccc3n2)cc1N1CCOCC1 | – | IC50 (HT-29 [5]): > 10 µM
N#Cc1ncc(Nc2ncc3c(ccc(=O)n3CC(F)F)n2)cc1OC[C@H]1CCCNC1 | > 10 | –
N#Cc1ncc(Nc2ncc3c(ccc(=O)n3CC(F)F)n2)cc1NC1CCNCC1 | > 10 | –
N#Cc1ncc(Nc2ncc3[nH]c(=O)ccc3n2)cc1N[C@H]1CC[C@@H](N)CC1 | 0.0565 | IC50 (HT-29 [5]): > 10 µM
N#Cc1ncc(Nc2ncc3c(ccc(=O)n3CC(N)=O)n2)cc1N[C@H]1CC[C@@H](N)CC1 | 8.64 | –
N#Cc1ncc(Nc2ncc3c(ccc(=O)n3CC(F)F)n2)cc1NCC1CCCCN1 (configuration not stated) | 3.8 | –
N#Cc1ncc(Nc2ncc3[nH]c(=O)ccc3n2)cc1N[C@H]1CC[C@H](N)CC1 | 0.0394 | IC50 (HT-29 [5]): > 10 µM

SMILES | IC50 (MV4-11) [µM] | further results
CCn1c(=O)ccc2nc(Nc3cnc(C#N)c(N[C@H]4CC[C@@H](N)CC4)c3)ncc21 | 2.23 | –
N#Cc1ncc(Nc2ncc3[nH]c(=O)ccc3n2)cc1NCCN | – | IC50 (HT-29 [5]): > 10 µM
CC(C)n1c(=O)ccc2nc(Nc3cnc(C#N)c(N[C@H]4CC[C@@H](N)CC4)c3)ncc21 | 2.19 | –
N#Cc1ncc(Nc2ncc3c(ccc(=O)n3CC(F)F)n2)cc1N[C@H]1CC[C@H](N)CC1 | 2.67 | –
CN1CCC(Oc2cc(Nc3ncc4c(ccc(=O)n4CC(F)F)n3)cnc2C#N)CC1 | > 10 | –
N#Cc1ncc(Nc2ncc3c(ccc(=O)n3CC(F)F)n2)cc1NC[C@H]1CCNC1 | > 10 | –
N#Cc1ncc(Nc2ncc3[nH]c(=O)ccc3n2)cc1NC1CCNC1 (single isomer, unassigned) | > 10 | IC50 (HT-29 [5]): > 10 µM
N#Cc1ncc(Nc2ncc3c(ccc(=O)n3CC(F)F)n2)cc1OC1CCNCC1 | > 10 | –
N#Cc1ncc(Nc2ncc3c(ccc(=O)n3CC(F)F)n2)cc1N[C@H]1CC[C@@H](N)CC1 | 2.47 | –
Cn1c(=O)ccc2nc(Nc3cnc(C#N)c(N[C@H]4CC[C@@H](N)CC4)c3)ncc21 | 0.883 | –
N#Cc1ncc(Nc2ncc3[nH]c(=O)ccc3n2)cc1NC[C@@H]1CCCNC1 | – | IC50 (HT-29 [5]): > 10 µM
N#Cc1ncc(Nc2ncc3[nH]c(=O)ccc3n2)cc1N[C@H]1CCCNC1 | 0.0195 | IC50 (HT-29 [5]): > 10 µM
N#Cc1ncc(Nc2ncc3c(n2)CCC(=O)N3)cc1NC1CCNC1 (single isomer, unassigned) | > 10 | IC50 (HT-29 [5]): > 10 µM
N#Cc1ncc(Nc2ncc3c(ccc(=O)n3CC(F)F)n2)cc1O[C@@H]1CCCNC1 | 4.88 | –
CN(C)CCNc1cc(Nc2ncc3c(ccc(=O)n3CC(F)F)n2)cnc1C#N | 3.81 | –
N#Cc1ncc(Nc2ncc3c(ccc(=O)n3CC(F)F)n2)cc1O[C@H]1CCCNC1 | > 10 | –
N#Cc1ncc(Nc2ncc3c(ccc(=O)n3CC(F)(F)F)n2)cc1N[C@H]1CCNC1 | > 10 | –
